Laboratory results from PubChem BioAssay AID256 (DTP/NCI, 2004).
“And” between values parts separate entries of the source, which are not always exact repeats. Equal values may be shown once. Inconclusive results and toxic doses are left out. How the source made its calls: active means survival T/C of 150% or more; inactive means T/C below 125% in these data.

System: CD2F1 mice, L1210 leukemia ip, survival T/C
Experiment: NCI In Vivo Anticancer Drug Screen. Data for tumor model L1210 Leukemia (intraperitoneal) in CD2F1 (CDF1) mice
Conditions: higher = longer survival
How it was run: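 Vehicle-treated tumor-bearing mice served as controls (C) for compound-treated mice (T). Reported figure is T divided by C.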

[1] = endpoint: mean survival time, dose: 100.0 mg/kg/injection, schedule: Q04DX003 (ip), vehicle: saline with Tween-80
[2] = endpoint: mean survival time, dose: 200.0 mg/kg/injection, schedule: Q04DX003 (ip), vehicle: saline with Tween-80
[3] = endpoint: mean survival time, dose: 400.0 mg/kg/injection, schedule: Q04DX003 (ip), vehicle: saline with Tween-80
[4] = endpoint: mean survival time, dose: 100.0 mg/kg/injection, schedule: Q01DX009 (ip), vehicle: saline with Tween-80
[5] = endpoint: mean survival time, dose: 200.0 mg/kg/injection, schedule: Q01DX009 (ip), vehicle: saline with Tween-80
[6] = endpoint: mean survival time, dose: 400.0 mg/kg/injection, schedule: Q01DX009 (ip), vehicle: saline with Tween-80
[7] = endpoint: mean survival time, dose: 100.0 mg/kg/injection, schedule: Q04DX002 (ip), vehicle: saline with Tween-80
[8] = endpoint: mean survival time, dose: 200.0 mg/kg/injection, schedule: Q04DX002 (ip), vehicle: saline with Tween-80
[9] = endpoint: mean survival time, dose: 25.0 mg/kg/injection, schedule: Q04DX002 (ip), vehicle: saline with Tween-80
[10] = endpoint: mean survival time, dose: 50.0 mg/kg/injection, schedule: Q04DX002 (ip), vehicle: saline with Tween-80
[11] = endpoint: mean survival time, dose: 50.0 mg/kg/injection, schedule: Q04DX003 (ip), vehicle: saline with Tween-80
[12] = endpoint: mean survival time, dose: 200.0 mg/kg/injection, schedule: Q01DX001 (ip), vehicle: saline with Tween-80
[13] = endpoint: mean survival time, dose: 50.0 mg/kg/injection, schedule: Q01DX009 (ip), vehicle: saline with Tween-80

Measured: T/C

CC(=Nc1ccccc1)c1ccc2ccccc2c1
inactive: [1] 98 % of control | [2] 93 % of control | [3] 97 % of control

COC1=CC(=O)C2(C)CC=CCC2C1 (centres undefined)
inactive: [4] 98 % of control | [1] 92 % of control | [5] 95 % of control | [2] 103 % of control | [6] 95 % of control | [3] 91 % of control

CN(C)CCC(=O)c1cccc(O)c1
inactive: [7] 104 % of control | [8] 101 % of control

N#Cc1c(F)c(F)c(Oc2c(F)c(F)c(F)c(F)c2F)c(F)c1F
inactive: [1] 94 % of control | [2] 91 % of control

Clc1ccccc1P(c1ccccc1)c1ccccc1
inactive: [9] 100 % of control | [10] 100 % of control | [7] 100 % of control

COc1ccc(/C=C/C(CC(NO)c2ccc(OC)cc2)=N/O)cc1 (centres undefined)
inactive: endpoint: mean survival time, dose: 12.5 mg/kg/injection, schedule: Q04DX003 (ip), vehicle: saline with Tween-80 101 % of control | endpoint: mean survival time, dose: 25.0 mg/kg/injection, schedule: Q01DX001 (ip), vehicle: saline with Tween-80 103 % of control | endpoint: mean survival time, dose: 25.0 mg/kg/injection, schedule: Q04DX003 (ip), vehicle: saline with Tween-80 101 % of control | endpoint: mean survival time, dose: 50.0 mg/kg/injection, schedule: Q01DX001 (ip), vehicle: saline with Tween-80 104 % of control | [11] 102 % of control | [1] 95 % of control | [12] 97 % of control | [2] 98 % of control

Cc1noc2c1ncc[n+]2[O-]
inactive: endpoint: mean survival time, dose: 5.0 mg/kg/injection, schedule: Q04DX003 (ip), vehicle: saline 101 % of control | endpoint: mean survival time, dose: 10.0 mg/kg/injection, schedule: Q04DX003 (ip), vehicle: saline 101 % of control | endpoint: mean survival time, dose: 20.0 mg/kg/injection, schedule: Q04DX003 (ip), vehicle: saline 100 % of control

CC(O)Cc1c(Cc2ccccc2)nc(-c2ccccc2)[nH]c1=O (centres undefined)
inactive: [13] 91 % of control | [4] 90 % of control | [1] 95 % of control | [2] 90 % of control | [3] 88 % of control

O=C(NC(=S)Nc1cccc2c(O)cccc12)c1cccc(Br)c1
inactive: endpoint: mean survival time, dose: 100.0 mg/kg/injection, schedule: Q01DX001 (ip), vehicle: saline with Tween-80 88 % of control and 91 % of control | [4] 86 % of control and 98 % of control | [7] 90 % of control and 91 % of control | [1] 94 % of control | [12] 88 % of control and 92 % of control | [5] 103 % of control and 108 % of control | [8] 91 % of control and 94 % of control | [2] 94 % of control | endpoint: mean survival time, dose: 400.0 mg/kg/injection, schedule: Q01DX001 (ip), vehicle: saline with Tween-80 88 % of control and 90 % of control | [6] 116 % of control and 108 % of control | endpoint: mean survival time, dose: 400.0 mg/kg/injection, schedule: Q04DX002 (ip), vehicle: saline with Tween-80 90 % of control and 95 % of control | [3] 94 % of control

C#CC(OC(C)=O)C1OC(n2cnc3c(Cl)nc(Cl)nc32)C(OC(C)=O)C1OC(C)=O (centres undefined)
inactive: endpoint: median survival time, dose: 12.5 mg/kg/injection, schedule: Q01DX005 (ip), vehicle: distilled water + Tween-80 109 % of control and 103 % of control | endpoint: median survival time, dose: 25.0 mg/kg/injection, schedule: Q01DX005 (ip), vehicle: distilled water + Tween-80 107 % of control and 100 % of control | endpoint: median survival time, dose: 50.0 mg/kg/injection, schedule: Q01DX005 (ip), vehicle: distilled water + Tween-80 103 % of control | endpoint: median survival time, dose: 100.0 mg/kg/injection, schedule: Q01DX005 (ip), vehicle: distilled water + Tween-80 108 % of control and 111 % of control | endpoint: median survival time, dose: 200.0 mg/kg/injection, schedule: Q01DX005 (ip), vehicle: distilled water + Tween-80 102 % of control and 111 % of control

CC(=O)ON(C(C)=O)c1ccc(S(=O)(=O)c2ccc(N(OC(C)=O)C(C)=O)cc2)cc1
inactive: endpoint: mean survival time, dose: 100.0 mg/kg/injection, schedule: Q01DX009 (ip), vehicle: saline 92 % of control | endpoint: mean survival time, dose: 200.0 mg/kg/injection, schedule: Q01DX009 (ip), vehicle: saline 90 % of control | endpoint: mean survival time, dose: 400.0 mg/kg/injection, schedule: Q01DX009 (ip), vehicle: saline 89 % of control

Nc1ccc2ccccc2c1-c1c(N)ccc2ccccc12
inactive: endpoint: mean survival time, dose: 18.7 mg/kg/injection, schedule: Q04DX002 (ip), vehicle: saline with Tween-80 91 % of control | endpoint: mean survival time, dose: 37.5 mg/kg/injection, schedule: Q04DX002 (ip), vehicle: saline with Tween-80 91 % of control | endpoint: mean survival time, dose: 75.0 mg/kg/injection, schedule: Q04DX002 (ip), vehicle: saline with Tween-80 102 % of control

CC1CCC(C(C)C2C(O)CC3C4CC=C5CC(O)CCC5(C)C4CCC32C)NC1 (centres undefined)
inactive: [11] 93 % of control | [1] 90 % of control and 96 % of control | [2] 87 % of control and 98 % of control

Nc1ccccc1SC(CC(=O)c1ccccc1)c1ccc2c(c1)OCO2 (centres undefined)
inactive: [4] 95 % of control | [5] 93 % of control | [6] 100 % of control

N#Cc1cn(C2OC(CO)C3OC32)c2ncnc(NC(=O)c3ccccc3)c12 (centres undefined)
inactive: endpoint: mean survival time, dose: 25.0 mg/kg/injection, schedule: Q01DX005 (ip), vehicle: distilled water + Tween-80 103 % of control | endpoint: mean survival time, dose: 50.0 mg/kg/injection, schedule: Q01DX005 (ip), vehicle: distilled water + Tween-80 104 % of control | endpoint: mean survival time, dose: 100.0 mg/kg/injection, schedule: Q01DX005 (ip), vehicle: distilled water + Tween-80 114 % of control | endpoint: mean survival time, dose: 200.0 mg/kg/injection, schedule: Q01DX005 (ip), vehicle: distilled water + Tween-80 110 % of control

N#CC1C2CCC(O2)C1C(=O)OCc1ccccc1 (centres undefined)
inactive: endpoint: mean survival time, dose: 25.0 mg/kg/injection, schedule: Q01DX009 (ip), vehicle: saline with Tween-80 102 % of control | [9] 106 % of control | [13] 102 % of control | [10] 101 % of control | [4] 102 % of control | [7] 101 % of control | [8] 89 % of control

O=NN(CCCl)C(=S)Nc1ccccc1
inactive: endpoint: mean survival time, dose: 100.0 mg/kg/injection, schedule: Q01DX001 (ip), vehicle: other 98 % of control | endpoint: mean survival time, dose: 200.0 mg/kg/injection, schedule: Q01DX001 (ip), vehicle: other 98 % of control
